Earlier results, collected in patent US20140142181A1, “TREATING AND INHIBITING RECURRENCE OF MUSCLE CRAMPS” (priority 2012, published 2014).

Tests used:
[1] = received by USFDA; quinine use
cramping = settings: 39 Division I baseball players; creatine supplementation during training and competition

In the case of `C=C[C@H]1C[N@@]2CC[C@H]1C[C@H]2[C@H](O)c1ccnc2ccc(OC)cc12` [quinine, Quinine], the “Deaths among reported adverse events” value [1] is given as 93 and the “Reports of adverse events with serious outcomes” value [1] is given as 665.

In the case of `CN(CC(=O)O)C(=N)N` [creatine], the “Cramping, creatine group versus non-creatine group” value (cramping) is given as “no significant difference”.
